Type in all cases: cell-based
Experiment [1] has as its system yeast cocktail (Raised, Rough and Flat white yeast and a pink yeast). The experiment can be described thus: “Yeast” procedure, yeast cocktail. The text has this: In the present example, cultures of various microorganisms native to actual process brines used in cheese manufacture were obtained from a cheese plant. […] Organism cultures included four different types of yeast (three distinct while yeast cultures and a pink yeast), a black mold culture, a coliform culture, a culture of mixed green mold and yeast that were not separated, and a culture that was identified by the cheese plant as heterofermentative lactic acid bacteria, although no actual identification of the strain was carried out.
(§1) “Yeast” Procedure: • 1. Inoculate a separate tube containing 10 ml of Brain Heart Infusion (BHI) broth for each wild type (Raised, Rough and Flat white yeast along with a single pink yeast). Incubate for 5 days at 26° C.+/−2° C. • 2. Assume growth to be 10^7 cfu/ml. Since 4 cultures are being used, combine 2.75 ml of each culture added to 99 ml of cold Butterfield's Phosphate Buffered Water (PBW) to obtain 10^6 cfu/ml of yeast cocktail. • 3. Plate serial dilutions of the culture to get the starting count of the inoculum on Dichloran-Rose Bengal-Chloramphenicol Agar (DRBC). • 4. Add 1 ml of the diluted cocktail to 100 ml of cold test solution. • 5. Determine the population at time 0 and 4 hours. Spread plate serial dilutions to DRBC agar. • 6. Incubate the test solutions at 10° C.+/−2° C. for the duration of the experiment. • 7. Incubate the plates at 20° C.+/−2° C. for 5 days+/−2 hours. • 8. Count representative colonies and multiply by the dilution factor. Note: Each test solution should contain ˜10^4 cfu/ml.
(§2) The brines were treated with different concentrations of octanoic acid and then challenged with a yeast cocktail (which included the pink and 3 different white mold types), the green mold+yeast combination, and coliforms.

For experiment [2], the system named is wild type coliforms from cheese plant brine. The experiment can be described thus: Coliforms procedure in cheese brine or buffered solution.
For the next experiment, the system named is black mold. The experiment can be described thus: “Mold” procedure, black mold. As to the method:
(§3) In the present example, cultures of various microorganisms native to actual process brines used in cheese manufacture were obtained from a cheese plant. The cultures of yeast, mold, and coliforms were grown and used to test the efficacy of various antimicrobial additives in blue cheese brines. Organism cultures included four different types of yeast (three distinct while yeast cultures and a pink yeast), a black mold culture, a coliform culture, a culture of mixed green mold and yeast that were not separated, and a culture that was identified by the cheese plant as heterofermentative lactic acid bacteria, although no actual identification of the strain was carried out.
(§4) “Mold” Procedure: • 1. From refrigerated stock mold cultures, take 1 ml from black mold dilution bottle added to 99 ml of cold Butterfield's Phosphate Buffered Water (PBW) to obtain 10^5 cfu/ml. • 2. Take 1 ml from green mold/white yeast mixture dilution bottle added to 99 ml of cold Butterfield's Phosphate Buffered Water (PBW) to obtain 10^6 cfu/ml. • 3. Plate serial dilutions of the cultures to get the starting count of the inoculum on Dichloran-Rose Bengal-Chloramphenicol Agar (DRBC). • 4. Add 1 ml of the diluted mold culture to 100 ml of cold test solution (do separately for each of the two mold cultures). • 5. Determine the population at time 0 and 4 hours. Spread plate serial dilutions to DRBC agar. • 6. Incubate the test solutions at 10° C.+/−2° C. for the duration of the experiment. • 7. Incubate the plates at 20° C.+/−2° C. for 5 days+/−2 hours. • 8. Count representative colonies and multiply by the dilution factor. Note: For black mold, each test solution should contain ˜10^3 cfu/ml. For green mold/white yeast mixture, each test solution should contain ˜10^4 cfu/ml.

In experiment [3] the test system is L. monocytogenes. The experiment can be described thus: L. monocytogenes challenge in beef plant chill brine at 4° C. The conditions noted are these: after 4 hours at 4° C.; surfactant added to beef plant brine, approximately 17% sodium chloride. As to the method:
(§5) 1. Inoculate a separate tube containing approximately 10 ml of Brain Heart infusion (BHI) broth with the following L. monocytogenes strains: H2446 (CDC Global Standard), Scott A (serotype 4b), 12243 (serotype 1/2a), and two strains isolated from the environment of a cooked meat and poultry facility, designated WP1, and WP4. Incubate the tubes at least 5 days at 7-10° C.+/−2° C. 2. Assume the growth to be 10^9 cfu/ml. Serially dilute each culture in cold (˜7° C.). Butterfield's Phosphate Buffered Water (PBW) to 10^8 cfu/ml (1:10). Since five cultures of L. monocytogenes are being used as a cocktail, begin the dilution series using 2.20 ml of each culture added to 99 ml of PBW. 3. Plate (−6, −7, −8) the diluted culture to get the starting count of the inoculum on Modified Oxford medium (MOX) using a thin agar overlay (TAL) technique (overlay with Trypticase Soy Agar [TSA]) to revive injured cells. 4. Add 1 ml of the diluted cocktail to 100 ml of cold test solution. 5. Mix the solutions well. 6. Determine the L. monocytogenes population at time 0 and 4 hours. Plate −1 (0.1 ml on 1 plate), −2, −3, and −4 dilutions using spread plates on MOX TAL with TSA. 7. Incubate the test solutions at test temperature for the duration of the experiment. 8. Incubate the MOX TAL with TSA plates at 20° C.+/−2° C. for 72+/−3 hours. Count representative colonies, which are black, and multiply by the dilution factor.
Several tests were carried out to determine the effectiveness of embodiments according to the invention in meat processing chill brines. In one experiment, brine was taken at the end of a production week from a brine chiller used in a ready to eat, cooked beef production line. The sodium chloride concentration in this brine was approximately 17%. Samples of the brine with and without added surfactant were inoculated with a cocktail of L. monocytogenes as per the procedure described above, incubated at 4° C. for four hours, and then plated to determine L. monocytogenes survival.

Experiment [4] concerns L. monocytogenes. The experiment can be described thus: L. monocytogenes cocktail challenge of surfactant/salt solutions at 2° C. The conditions noted are these: after 4 hours in solution at 2° C. As to the method: Tests were generally run according to the following procedure:
as §5

Another experiment has as its system White Yeast. The experiment can be described thus: Yeast challenge, white yeast. Particulars: after 4 hours in mozzarella cheese brine; Table 19. As to the method: as §1
(§6) In order to determine if the effect of the additive was repeatable, more challenge tests were run on samples of process brine. […] In this test the solutions were challenged with two distinct yeast (a white and a pink) types and coliforms from the samples sent by the cheese plant.

The test system of another experiment is Pink Yeast. Put plainly: Yeast challenge, pink yeast. Particulars: after 4 hours in mozzarella cheese brine; Table 19. As for the experimental part: as §1, §6
The test system of experiment [5] is wild type coliforms from cheese plant brine. The experiment can be described thus: Coliforms procedure in cheese brine or buffered solution. As to the method:
as §3
Coliforms Procedure: • 1. Inoculate a separate tube containing 10 ml of Brain Heart Infusion (BHI) broth for each wild type coliforms 1 and 2. Incubate for 24+/−2 hours at 35° C.+/−2° C. • 2. Assume growth to be 10^9 cfu/ml. Since two cultures are being used, combine 5.5 ml of each culture added to 99 ml of cold Butterfield's Phosphate Buffered Water (PBW) to obtain 10^8 cfu/ml. • 3. Plate serial ten-fold dilutions of the culture to get the starting count of the inoculum on Violet Red Bile Agar (VRBA). • 4. Add 1 ml of the diluted cocktail to 100 ml of cold test solution. • 5. Determine the population at time 0 and 4 hours by plating serial dilutions to VRBA spread plates. • 6. Incubate the test solutions at 10° C.+/−2° C. for the duration of the experiment. • 7. Incubate the plates at 20° C.+/−2° C. for 72+/−2 hours. • 8. Count representative colonies and multiply by the dilution factor. Note: Each test solution should contain ˜10^8 cfu/ml.
as §2
This is another data set of the same source.

In experiment [6] the test system is green mold/white yeast mixture. The experiment can be described thus: “Mold” procedure, green mold/white yeast mixture. Particulars: 500 ppm in mozzarella brine. As to the method:
as §3, §4
Screening tests identified octanoic acid as a promising antimicrobial additive for salt brines. Table 16 gives results of a challenge test run on actual blue cheese and mozzarella process brine samples sent from a cheese plant. The brines were treated with different concentrations of octanoic acid and then challenged with a yeast cocktail (which included the pink and 3 different white mold types), the green mold+yeast combination, and coliforms. […] The plate counts listed parenthetically as (est) were too numerous to count and were estimated.

Setting [7] is: after 4 hours in buffer of 375 ppm acetic acid and 525 ppm sodium acetate, pH 4.74.
[8] abbreviates: Table 2, different salts and salt concentrations.
Where [9] appears, read: after 4 hours in blue cheese brine taken before or after brining cheese wheels, Table 22.
Setting [10] is: about 250 ppm in blue cheese brine.

Take `CCCCCCCC(=O)[O-].[Na+]` [140 ppm Na Octanoate, sodium octanoate]: the “Yeast Cocktail count” value in experiment [1] (setting [7]) is 10,000 cfu/mL. For the same compound, the Coliform count in experiment [2] (setting [7]) is 7,700 cfu/mL. Besides, in the experiment with black mold (setting [7]), the “Black Mold count” value is given as 630 cfu/mL.

In the case of sodium linear alkylbenzene sulfonate, the L. mono count in the experiment on L. monocytogenes [3] was less than 10 cfu/mL; with L. monocytogenes [4] (Table 1), 5.9 × 10^3 cfu/mL.

For the compound `[Cl-].[Na+]` [24% NaCl, sodium chloride, reference compound], the “Yeast Cocktail count” value in experiment [1] (setting [7]) is listed as 6,600 cfu/mL. Moreover, in experiment [2] (setting [7]), the Coliform count is 11,000 cfu/mL. In addition, the “Black Mold count” value in the experiment on black mold (setting [7]) was determined as 660 cfu/mL.

For the compound “lauramine oxide [50 ppm lauramine oxide]”, the L. mono count in the experiment with L. monocytogenes [3] is given as less than 10 cfu/mL; in the experiment with L. monocytogenes [4] (Table 1), 3.6 × 10^3 cfu/mL; with L. monocytogenes [4] (setting [8]), 5.8 × 10^4 cfu/mL.

Turning to `CCCCCCCC(=O)O` [1250 ppm octanoic acid, octanoic acid], the “White Yeast count” value with White Yeast is less than 10 cfu/mL. Further, in the experiment with Pink Yeast, the “Pink Yeast count” value is given as less than 10 cfu/mL. Besides, in [2] (after 4 hours in mozzarella cheese brine, Table 19), the Coliform count is 1.2 × 10^3 cfu/mL.

Regarding `CCCCCCCC(=O)[O-].[Na+]` [70 ppm Na Octanoate, sodium octanoate], the “Yeast Cocktail count” value in experiment [1] (setting [7]) is given as 7,500 cfu/mL. Further, in experiment [2] (setting [7]), the Coliform count is listed as 12,000 cfu/mL. In addition, the “Black Mold count” value in the experiment on black mold (setting [7]) is given as 510 cfu/mL.

With `CCCCCCCC(=O)O` [250 ppm octanoic acid (after cheese), octanoic acid], in experiment [1] (setting [9]), the “Yeast Cocktail count” value is listed as less than 10 cfu/mL. For the same compound, the Coliform count in [5] (setting [9]) is recorded as less than 10 cfu/mL. In the experiment with black mold (setting [9]), the “Black Mold count” value is reported as less than 10 cfu/mL.

Consider `CCCCCCCC(=O)O` [octanoic acid, octanoic (caprylic) acid], for which, in experiment [1] (250 ppm in mozzarella brine (so in the source)), the “log kill of one of the yeast cultures” value is reported as more than 3.76 log. In addition, the “log kill of yeast” value in experiment [1] (setting [10]) was approximately 3 log. The “log kill of coliform” value in experiment [5] (setting [10]) is approximately 3 log. Besides, the “log reduction in the yeast+mold count” value in experiment [6] was found to be 2 log. Further, in experiment [2] (500 ppm in mozzarella brine), the “log reduction in the coliform count” value is 2 log. The “log kill of coliforms” value in experiment [2] (mozzarella brine, Table 19) is reported as approximately 2 log. Further, in the experiment on black mold (setting [10]), the “log kill of mold” value was approximately 3 log.

Turning to “nonylphenol ethoxylate [50 ppm nonylphenol ethoxylate]”, the L. mono count with L. monocytogenes [3] is given as less than 10 cfu/mL; with L. monocytogenes [4] (Table 1), 1.3 × 10^5 cfu/mL.

In the case of “sodium linear alkylbenzene [25 ppm sodium linear alkylbenzene]”, the L. mono count with L. monocytogenes [3] is on record as less than 10 cfu/mL.

Turning to “fatty alkanolamide [50 ppm fatty alkanolamide]”, the L. mono count in the experiment with L. monocytogenes [3] is less than 10 cfu/mL; in the experiment on L. monocytogenes [4] (Table 1), 1.1 × 10^4 cfu/mL.

Regarding “sodium olefin sulfonate [50 ppm sodium olefin sulfonate]”, the L. mono count is reported as 10 cfu/mL in the experiment on L. monocytogenes [3] and 1.8 × 10^5 cfu/mL in the experiment with L. monocytogenes [4] (setting [8]).

Take `CCCCCCCC(=O)[O-].[Na+]` [35 ppm Na Octanoate, sodium octanoate]: the “Yeast Cocktail count” value in [1] (setting [7]) is given as 9,000 cfu/mL. Besides, in [2] (setting [7]), the Coliform count is reported as 7,000 cfu/mL. For the same compound, the “Black Mold count” value in the experiment with black mold (setting [7]) is 710 cfu/mL.

The values are drawn from US20110212235A1, “ANTIMICROBIAL SALT SOLUTIONS FOR CHEESE PROCESSING APPLICATIONS” (priority 2006, published 2011).
